According to publication PMC10461229 (Journal of Medicinal Chemistry, 2023):
Read-outs that look alike come from different tables or passages of the source.

Test system: wild-type (WT) Mtb Erdman
Assay: microbe, parasite or virus in culture
Assay type: cell-based, Mycobacterium tuberculosis
Conditions: read-out: MABA mean IC50 ± SD
[1] = Mycobacterium tuberculosis, ERDMAN

SMILES	IC50 [1] [µM]	IC50 [µM]
O=C(O)C1CSc2c(C3CC3)c(CSc3nnc(-c4cccc5ccccc45)o3)cc(=O)n21 (racemic) [Compound 8a, (±) 8-Cyclopropyl-7-(((5-(naphthalen-1-yl)-1,3,4-oxadiazol-2-yl)thio)methyl)-5-oxo-2,3-dihydro-5H-thiazolo[3,2-a]pyridine-3-carboxylic Acid]	12.6 ± 2.16	–
O=C(O)C1CSc2c(C3CC3)c(CSc3nnc(Cc4cccc5ccccc45)o3)cc(=O)n21 (racemic) [Compound 8c, (±) 8-Cyclopropyl-7-(((5-(naphthalen-1-ylmethyl)-1,3,4-oxadiazol-2-yl)thio)methyl)-5-oxo-2,3-dihydro-5H-thiazolo[3,2-a]pyridine-3-carboxylic Acid]	> 25	–
O=C(O)C1CSc2c(C3CC3)c(CSc3nnc(-c4ccc5ccccc5c4)o3)cc(=O)n21 (racemic) [Compound 8d, (±) 8-Cyclopropyl-7-(((5-(naphthalen-2-yl)-1,3,4-oxadiazol-2-yl)thio)methyl)-5-oxo-2,3-dihydro-5H-thiazolo[3,2-a]pyridine-3-carboxylic Acid]	3.5	3.53 ± 1.9
O=C(O)C1CSc2c(C3CC3)c(CSc3nnc(Cc4ccc5ccccc5c4)o3)cc(=O)n21 (racemic) [Compound 8e, (±) 8-Cyclopropyl-7-(((5-(naphthalen-2-ylmethyl)-1,3,4-oxadiazol-2-yl)thio)methyl)-5-oxo-2,3-dihydro-5H-thiazolo[3,2-a]pyridine-3-carboxylic Acid]	> 25	–
O=C(O)C1CSc2c(C3CC3)c(CSc3nnc(-c4ccc([N+](=O)[O-])cc4)o3)cc(=O)n21 (racemic) [Compound 8g, (±) 8-Cyclopropyl-7-(((5-(4-nitrophenyl)-1,3,4-oxadiazol-2-yl)thio)methyl)-5-oxo-2,3-dihydro-5H-thiazolo[3,2-a]pyridine-3-carboxylic Acid]	> 25	–
COc1cccc(-c2nnc(SCc3cc(=O)n4c(c3C3CC3)SCC4C(=O)O)o2)c1 (racemic) [Compound 8h, (±) 8-Cyclopropyl-7-(((5-(3-methoxyphenyl)-1,3,4-oxadiazol-2-yl)thio)methyl)-5-oxo-2,3-dihydro-5H-thiazolo[3,2-a]pyridine-3-carboxylic Acid]	> 25	–
O=C(O)C1CSc2c(C3CC3)c(CSc3nnc(-c4ccncc4)o3)cc(=O)n21 (racemic) [Compound 8i, (±) 8-Cyclopropyl-5-oxo-7-(((5-(pyridin-4-yl)-1,3,4-oxadiazol-2-yl)thio)methyl)-2,3-dihydro-5H-thiazolo[3,2-a]pyridine-3-carboxylic Acid]	> 25	–
O=C(O)C1CSc2c(C3CC3)c(CSc3nnc(-c4cccs4)o3)cc(=O)n21 (racemic) [Compound 8j, (±) 8-Cyclopropyl-5-oxo-7-(((5-(thiophen-2-yl)-1,3,4-oxadiazol-2-yl)thio)methyl)-2,3-dihydro-5H-thiazolo[3,2-a]pyridine-3-carboxylic Acid]	> 25	–
O=C(O)C1CSc2c(C3CC3)c(CSc3nnc(-c4ccco4)o3)cc(=O)n21 (racemic) [Compound 8k, (±) 8-Cyclopropyl-7-(((5-(furan-2-yl)-1,3,4-oxadiazol-2-yl)thio)methyl)-5-oxo-2,3-dihydro-5H-thiazolo[3,2-a]pyridine-3-carboxylic Acid]	> 25	–
O=C(O)C1CSc2c(C3CC3)c(CSc3nnc(COc4ccc(F)cc4)o3)cc(=O)n21 (racemic) [Compound 8l, (±) 8-Cyclopropyl-7-(((5-((4-fluorophenoxy)methyl)-1,3,4-oxadiazol-2-yl)thio)methyl)-5-oxo-2,3-dihydro-5H-thiazolo[3,2-a]pyridine-3-carboxylic Acid]	> 25	–
O=C(O)C1CSc2c(C3CC3)c(-c3nc4ccccc4[nH]3)cc(=O)n21 (racemic) [Compound 10, (±) 7-(1H-benzo[d]imidazole-2-yl)-8-cyclopropyl-5-oxo-2,3-dihydro-5H-thiazolo[3,2-a]pyridine-3-carboxylic Acid]	> 25	–
O=C(O)C1CSc2c(C3CC3)c(-c3nc4ccccc4o3)cc(=O)n21 (racemic) [Compound 13, (±) 7-(Benzo[d]oxazol-2-yl)-8-cyclopropyl-5-oxo-2,3-dihydro-5H-thiazolo[3,2-a]pyridine-3-carboxylic Acid]	> 25	–
O=C(O)C1CSc2c(C3CC3)c(-c3cn(-c4cccc5ccccc45)nn3)cc(=O)n21 (racemic) [Compound 15a, (±) 8-Cyclopropyl-7-(1-(naphthalen-1-yl)-1H-1,2,3-triazol-4-yl)-5-oxo-2,3-dihydro-5H-thiazolo[3,2-a]pyridine-3-carboxylic Acid]	> 25	–
O=C(O)C1CSc2c(C3CC3)c(-c3cn(-c4cccc(C(F)(F)F)c4)nn3)cc(=O)n21 (racemic) [Compound 15b, (±) 8-Cyclopropyl-5-oxo-7-(1-(3-(trifluoromethyl)phenyl)-1H-1,2,3-triazol-4-yl)-2,3-dihydro-5H-thiazolo[3,2-a]pyridine-3-carboxylic Acid]	> 25	–
O=C(O)C1CSc2c(C3CC3)c(-c3cn(-c4ccc5ccccc5c4)nn3)cc(=O)n21 (racemic) [Compound 15c, (±) 8-Cyclopropyl-7-(1-(naphthalen-2-yl)-1H-1,2,3-triazol-4-yl)-5-oxo-2,3-dihydro-5H-thiazolo[3,2-a]pyridine-3-carboxylic Acid]	7.37 ± 0.83	–
O=C(O)C1CSc2c(C3CC3)c(-c3cc(-c4cccc5ccccc45)no3)cc(=O)n21 (racemic) [Compound 17a, (±) 8-Cyclopropyl-7-(3-(naphthalen-1-yl)isoxazol-5-yl)-5-oxo-2,3-dihydro-5H-thiazolo[3,2-a]pyridine-3-carboxylic Acid]	1.86 ± 1.13	–
O=C(O)C1CSc2c(C3CC3)c(-c3cc(-c4cccc(C(F)(F)F)c4)no3)cc(=O)n21 (racemic) [Compound 17b, (±) 8-Cyclopropyl-5-oxo-7-(3-(3-(trifluoromethyl)phenyl)isoxazol-5-yl)-2,3-dihydro-5H-thiazolo[3,2-a]pyridine-3-carboxylic Acid]	3.04 ± 0.58	–
O=C(O)C1CSc2c(C3CC3)c(-c3cc(C4CC4)no3)cc(=O)n21 (racemic) [Compound 17c, (±) 8-Cyclopropyl-7-(3-cyclopropylisoxazol-5-yl)-5-oxo-2,3-dihydro-5H-thiazolo[3,2-a]pyridine-3-carboxylic Acid]	> 25	–
O=C(O)C1CSc2c(C3CC3)c(-c3cc(C4CCCCC4)no3)cc(=O)n21 (racemic) [Compound 17d, (±) 7-(3-Cyclohexylisoxazol-5-yl)-8-cyclopropyl-5-oxo-2,3-dihydro-5H-thiazolo[3,2-a]pyridine-3-carboxylic Acid]	> 25	–
COc1ccc(-c2cc(-c3cc(=O)n4c(c3C3CC3)SCC4C(=O)O)on2)cc1 (racemic) [Compound 17e, (±) 8-Cyclopropyl-7-(3-(4-methoxyphenyl)isoxazol-5-yl)-5-oxo-2,3-dihydro-5H-thiazolo[3,2-a]pyridine-3-carboxylic Acid]	2.62 ± 0.28	–
O=C(O)C1CSc2c(C3CC3)c(-c3cc(-c4ccc([N+](=O)[O-])cc4)no3)cc(=O)n21 (racemic) [Compound 17f, (±) 8-Cyclopropyl-7-(3-(4-nitrophenyl)isoxazol-5-yl)-5-oxo-2,3-dihydro-5H-thiazolo[3,2-a]pyridine-3-carboxylic Acid]	9.27 ± 0.62	–
O=C(O)C1CSc2c(C3CC3)c(-c3cc(-c4c5ccccc5cc5ccccc45)no3)cc(=O)n21 (racemic) [Compound 17i, (±) 7-(3-(Anthracen-9-yl)isoxazol-5-yl)-8-cyclopropyl-5-oxo-2,3-dihydro-5H-thiazolo[3,2-a]pyridine-3-carboxylic Acid]	1.56 ± 0.31	–
CC(C)(C)c1cc(-c2cc(-c3cc(=O)n4c(c3C3CC3)SCC4C(=O)O)on2)cc(C(C)(C)C)c1 (racemic) [Compound 17k, (±) 8-Cyclopropyl-7-(3-(3,5-di-tert-butylphenyl)isoxazol-5-yl)-5-oxo-2,3-dihydro-5H-thiazolo[3,2-a]pyridine-3-carboxylic Acid]	3.13 ± 0.16	–
O=C(O)C1CSc2c(C3CC3)c(-c3cc(-c4cc(F)cc(F)c4)no3)cc(=O)n21 (racemic) [Compound 17l, (±) 8-Cyclopropyl-7-(3-(3,5-difluorophenyl)isoxazol-5-yl)-5-oxo-2,3-dihydro-5H-thiazolo[3,2-a]pyridine-3-carboxylic Acid]	23.6 ± 1.51	–
O=C(O)C1CSc2c(C3CC3)c(-c3cc(-c4ccc(F)c5ccccc45)no3)cc(=O)n21 (racemic) [Compound 17m, (±) 8-Cyclopropyl-7-(3-(4-fluoronaphthalen-1-yl)isoxazol-5-yl)-5-oxo-2,3-dihydro-5H-thiazolo[3,2-a]pyridine-3-carboxylic Acid]	4 ± 0.67	–
O=C(O)C1CSc2c(C3CC3)c(-c3cc(-c4cccs4)no3)cc(=O)n21 (racemic) [Compound 17n, (±) 8-Cyclopropyl-5-oxo-7-(3-(thiophen-2-yl)isoxazol-5-yl)-2,3-dihydro-5H-thiazolo[3,2-a]pyridine-3-carboxylic Acid]	> 25	–
O=C(O)C1CSc2c(C3CC3)c(-c3cc(-c4ccc5c(c4)OCO5)no3)cc(=O)n21 (racemic) [Compound 17o, (±) 7-(3-(Benzo[d][1,3]dioxol-5-yl)isoxazol-5-yl)-8-cyclopropyl-5-oxo-2,3-dihydro-5H-thiazolo[3,2-a]pyridine-3-carboxylic Acid]	2.02 ± 0.46	–
O=C(O)C1CSc2c(C3CC3)c(-c3cc(-c4ccnc5ccccc45)no3)cc(=O)n21 (racemic) [Compound 17p, (±) 8-Cyclopropyl-5-oxo-7-(3-(quinolin-4-yl)isoxazol-5-yl)-2,3-dihydro-5H-thiazolo[3,2-a]pyridine-3-carboxylic Acid]	11 ± 1.48	–
O=C(O)C1CSc2c(C3CC3)c(-c3cc(-c4cccc5ccccc45)on3)cc(=O)n21 (racemic) [Compound 19a, (±) 8-Cyclopropyl-7-(5-(naphthalen-1-yl)isoxazol-3-yl)-5-oxo-2,3-dihydro-5H-thiazolo[3,2-a]pyridine-3-carboxylic Acid]	3.9 ± 1.43	–
O=C(O)C1CSc2c(C3CC3)c(-c3cc(-c4cccc(C(F)(F)F)c4)on3)cc(=O)n21 (racemic) [Compound 19b, (±) 8-Cyclopropyl-5-oxo-7-(5-(3-(trifluoromethyl)phenyl)isoxazol-3-yl)-2,3-dihydro-5H-thiazolo[3,2-a]pyridine-3-carboxylic Acid]	5.09 ± 1.3	–
